Laboratory results published in patent publication US20240409647A1, “BISPECIFIC BINDING PROTEINS AGAINST ALARMINS AND USES THEREOF” (SINOMAB BIOSCIENCE LIMITED, priority 2022, published 2024).
Values joined by “and” are separate entries in the source; they are usually repeats but may differ in a detail not shown here. Equal values may be shown once.

Tests used:
TSLP = target: T1, TSLP (Homo sapiens, UniProt Q969D9); test: Bio-Layer Interferometry (Octet), binding kinetics of bsBp to human TSLP
T1 construct: purchased R&D systems
Procedure: The binding affinity of bsBp to the targeted alarmins was determined using a bio-Layer Interferometry analysis (Octet ReD96 system, Sartorius). bsBp or SM17 (20 μg/mL) was immobilized on biosensors via binding to anti-human Fab CH1 region; serially diluted human IL33 and TSLP (158.7 nM, 79.4 nM, 39.7 nM) (R&D systems) were added to plot the association and dissociation curve according to the manufacturer's specification. Biosensors immobilized with irrelevant antibody (SM03, anti-human CD22 chimeric IgG1 antibody, SinoMab BioScience Limited, 20 μg/mL) were used as control reference.

Cyno-IL17RB = test: Bio-Layer Interferometry (Octet), SM17 binding kinetics to cynomolgus IL17RB; parameters: species or system cynomolgus monkey; conditions: trials 1 and 2
Procedure: (§1) Bio-Layer Interferometry analysis (Octet ReD96 system, Sartorius) was employed to determine the binding affinity of SM17 against human and cynomolgus monkey IL17RB protein (R&D systems). Briefly, SM17 (20 μg/mL) was immobilized on biosensors via interactions with anti-human Fab CH1; serially diluted Cyno-IL17RB and Human-IL17RB (at a concentration of 158.7 nM, 79.4 nM and 39.7 nM, respectively) were subsequently added following standard operation protocols of the Octet ReD96 system to plot out the association and dissociation curve. Irrelevant antibody (SM03, anti-human CD22 chimeric IgG1 antibody, SinoMab BioScience Limited) was used as the control reference. Of note, the KD is within picomolar-single digit nanomolar range.

IL-17RB [1] = target: T2, IL-17RB (Homo sapiens, UniProt Q9NRM6); test: ELISA, antigen binding specificity of bsBp (IL-17RB); parameters: key: −: no binding; +: weak; ++: moderate; +++: strong binding; N/A refers to no binding affinity; conditions: 33.5 nM; antigen coated at 2 μg/mL
T2 construct: purchased R&D systems
T2 sequence (Q9NRM6 18-502): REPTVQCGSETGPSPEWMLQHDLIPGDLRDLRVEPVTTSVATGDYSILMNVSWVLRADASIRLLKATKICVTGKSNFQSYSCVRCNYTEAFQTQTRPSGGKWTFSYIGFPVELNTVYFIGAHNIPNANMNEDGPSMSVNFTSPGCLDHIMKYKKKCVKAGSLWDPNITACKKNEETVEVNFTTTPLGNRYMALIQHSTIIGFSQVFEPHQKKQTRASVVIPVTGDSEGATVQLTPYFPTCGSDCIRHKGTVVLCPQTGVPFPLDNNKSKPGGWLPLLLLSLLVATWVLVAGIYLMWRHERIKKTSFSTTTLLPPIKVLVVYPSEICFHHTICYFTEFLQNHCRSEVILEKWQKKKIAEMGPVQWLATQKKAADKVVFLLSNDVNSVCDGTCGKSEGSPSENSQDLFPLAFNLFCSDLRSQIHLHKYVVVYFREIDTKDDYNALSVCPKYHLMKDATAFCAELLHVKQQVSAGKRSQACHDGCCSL
Procedure: Binding specificities of bsBp were evaluated by standard ELISA assays. Briefly, ELISA strips were coated with the respective target antigens, including IL17RB, IL-33, or TSLP (R&D systems) at a final concentration of 2 μg/mL. Bispecific antibodies were added at 33.5 nM to ELISA strips coated with the desired antigen. After incubation under room temperature for 2 hours, ELISA strips were washed five times with PBS. […] No result is provided for SM17-human TSLPR as the yield was too low to be detected.

IL-17RB [2] = target: T2, IL-17RB; test: Bio-Layer Interferometry (Octet), SM17 binding kinetics to human IL17RB; conditions: trials 1 and 2
Procedure: as §1

Human PBMCs = test: CCL8 and IFNγ release from human PBMC incubated with IL-12 and IL-33; assay type: cell-based; parameters: key to Intensity of specific cytokine inhibition, IFNγ / Intensity of specific cytokine inhibition, CCL-8: −: no inhibition; +: weak; ++: moderate; +++: strong inhibition
Procedure: Human PBMCs (4×10^5 per group, Ixcells) were incubated with IL-2 (10 unit/mL, PeproTech) and various alarmin/alarmin combinations to mimic the pro-inflammatory cytokines release during allergic diseases. For IL-5 and IL-13 releases, PBMCs were incubated with IL-2 and three alarmins (all 10 ng/ml) for three days. For CCL17 release, PBMC was incubated with TSLP (10 ng/ml) for 1 day. For CCL8 and IFNγ releases, PBMCs were incubated with IL-12 (10 ng/ml, Sino Biological) and IL-33 (10 ng/ml) for 1 day. Cells were pretreated with SM17 (5 μg/ml) or IgG4 isotype control (5 μg/ml) for an hour before the addition of cytokines.
Supernatants were collected and the cytokine concentration were measured by ELISA kits (R&D systems). These established assays were used to test the potency of and SM17 and bsBps. […] Results were expressed in absolute amount in pg/ml.
SM17, three different SM17-anti-IL33 bsBps and three different SM17-anti-TSLP bsBps (all at 5 μg/ml) were added to human PBMC cultures under conditions that shall induce the release of IFNγ, CCL8, CCL17 and IL-5 as described in Example 11 above. The levels of different cytokines and chemotactic factors in supernatant obtained in induced PBMC were evaluated using standard ELISA methods.

[3] = SM17 5 μg/ml, IL-12 and IL-33 10 ng/ml, 1 day, vs IgG4 isotype control

SM17: humanized anti-IL17RB monoclonal antibody, human IgG4 isotype; HC SEQ ID NO: 32, LC SEQ ID NO: 33
Kdis (TSLP): 0.001 s⁻¹ | Ka (TSLP; bsBp or SM17 immobilized at 20 μg/mL): 10000 M⁻¹ s⁻¹ | Ka (Cyno-IL17RB): 32100 M⁻¹ s⁻¹ and 42100 M⁻¹ s⁻¹ | Kdis (Cyno-IL17RB): 2.73e-05 s⁻¹ and 0.000215 s⁻¹ | Intensity of specific antigen binding, IL-17RB coated on ELISA strips (IL-17RB [1]): +++ | Ka (IL-17RB [2]): 222000 M⁻¹ s⁻¹ and 183000 M⁻¹ s⁻¹ | Intensity of specific cytokine inhibition, CCL-8 (Human PBMCs; 5 μg/ml, human PBMC): − | Intensity of specific cytokine inhibition, IFNγ (Human PBMCs; 5 μg/ml, human PBMC): − | CCL8 release (in words) (Human PBMCs; [3]): no inhibitory effects | IFNγ release (in words) (Human PBMCs; [3]): no inhibitory effects
